Experimental data from patent publication US12209087B2, “AKT1 modulators” (Alterome Therapeutics, Inc., priority 2022, dated 2025).

molecular target: T1, full length AKT E17K (Homo sapiens, UniProt P31749, E17K); test: NanoBRET Target Engagement (TE) Assay; assay type: cell-based; conditions: competitive displacement of tracer in cells, read-out: AKT1 E17K IC50
T1 construct: host or cells: HEK-293 (ATCC CRL-1573)
Summary of the method: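 Compound and tracer incubated 2 h before luminescence at donor 450 nm and acceptor 600 nm, with extracellular signal inhibited. EC50 by sigmoidal variable-slope regression.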

T1 sequence (P31749 whole entry E17K): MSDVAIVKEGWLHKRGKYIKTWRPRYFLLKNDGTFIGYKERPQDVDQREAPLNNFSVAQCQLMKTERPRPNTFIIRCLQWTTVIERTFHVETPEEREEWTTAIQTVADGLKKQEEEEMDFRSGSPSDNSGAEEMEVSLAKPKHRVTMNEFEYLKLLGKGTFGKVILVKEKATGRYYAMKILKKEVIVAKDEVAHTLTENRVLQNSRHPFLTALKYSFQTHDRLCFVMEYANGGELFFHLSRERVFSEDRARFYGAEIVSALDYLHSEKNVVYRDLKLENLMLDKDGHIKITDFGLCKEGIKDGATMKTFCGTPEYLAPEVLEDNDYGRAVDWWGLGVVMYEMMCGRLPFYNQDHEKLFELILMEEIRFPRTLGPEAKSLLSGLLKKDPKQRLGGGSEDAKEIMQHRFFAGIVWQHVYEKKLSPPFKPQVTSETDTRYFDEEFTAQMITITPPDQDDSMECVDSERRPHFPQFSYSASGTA

Structure (SMILES) | IC50 [nM]
N#Cc1ccc(-c2ccc3nc(-c4cccnc4N)n(-c4ccc(CN5CCN(c6nccc(C#N)n6)CC5)cc4)c3n2)cc1 [Example 319, 2-(4-(4-(2-(2-Aminopyridin-3-yl)-5-(4-cyanophenyl)-3H-imidazo[4,5-b]pyridin-3-yl)benzyl)piperazin-1-yl)pyrimidine-4-carbonitrile] | 60 to 600
N#Cc1ccc2nc(-c3cccnc3N)n(-c3ccc(CN4CCC(Nc5ccnc(C#N)n5)CC4)cc3)c2c1 [Example 500, 2-(2-Aminopyridin-3-yl)-1-(4-((4-((2-cyanopyrimidin-4-yl)amino)piperidin-1-yl)methyl)phenyl)-1H-benzo[d]imidazole-6-carbonitrile] | < 15
N#Cc1nccc(NC2CCN(Cc3ccc(-n4c(-c5cccnc5N)nc5ccc(-c6cnn(C(F)F)c6)nc54)cc3)CC2)n1 [Example 474, 4-((1-(4-(2-(2-Aminopyridin-3-yl)-5-(1-(difluoromethyl)-1H-pyrazol-4-yl)-3H-imidazo[4,5-b]pyridin-3-yl)benzyl)piperidin-4-yl)amino)pyrimidine-2-carbonitrile] | < 15
N#Cc1nccc(NC2CCN(Cc3ccc(-n4c(-c5cccnc5N)nc5ccc(N6CCCC6)nc54)cc3)CC2)n1 [Example 510, 4-((1-(4-(2-(2-Aminopyridin-3-yl)-5-(pyrrolidin-1-yl)-3H-imidazo[4,5-b]pyridin-3-yl)benzyl)piperidin-4-yl)amino)pyrimidine-2-carbonitrile] | < 15
[2H]C([2H])(c1ccc(-n2c(-c3cccnc3N)nc3ccc(-c4ccc(F)cc4)nc32)cc1)N1CCC(N(C)c2ccnc(C#N)n2)CC1 [Example 488, 4-((1-((4-(2-(2-Aminopyridin-3-yl)-5-(4-fluorophenyl)-3H-imidazo[4,5-b]pyridin-3-yl)phenyl)methyl-d2)piperidin-4-yl)(methyl)amino)pyrimidine-2-carbonitrile] | < 15
N#Cc1nccc(NC2CCN(Cc3ccc(-n4c(-c5cccnc5N)nc5ccc(-c6ccc(=O)n(C(F)F)c6)nc54)cc3)CC2)n1 [Example 617, 4-((1-(4-(2-(2-Aminopyridin-3-yl)-5-(1-(difluoromethyl)-6-oxo-1,6-dihydropyridin-3-yl)-3H-imidazo[4,5-b]pyridin-3-yl)benzyl)piperidin-4-yl)amino)pyrimidine-2-carbonitrile] | 15 to 60
Cn1cc(-c2ccc3nc(-c4cccnc4N)n(-c4ccc(CN5CCC(Nc6nccc(C#N)n6)CC5)cc4)c3n2)ccc1=O [Example 356, 2-((1-(4-(2-(2-Aminopyridin-3-yl)-5-(1-methyl-6-oxo-1,6-dihydropyridin-3-yl)-3H-imidazo[4,5-b]pyridin-3-yl)benzyl)piperidin-4-yl)amino)pyrimidine-4-carbonitrile] | 60 to 600
N#Cc1nccc(N2C[C@@H]3C[C@H]2CN3Cc2ccc(-n3c(-c4cccnc4N)nc4ccc(-c5ccccc5)nc43)cc2)n1 [Example 375, 4-((1S,4S)-5-(4-(2-(2-Aminopyridin-3-yl)-5-phenyl-3H-imidazo[4,5-b]pyridin-3-yl)benzyl)-2,5-diazabicyclo[2.2.1]heptan-2-yl)pyrimidine-2-carbonitrile] | 15 to 60
COc1cnccc1-c1ccc2nc(-c3cccnc3N)n(-c3ccc(CN4CCC(Nc5ccnc(C#N)n5)CC4)cc3)c2n1 [Example 515, 4-((1-(4-(2-(2-Aminopyridin-3-yl)-5-(3-methoxypyridin-4-yl)-3H-imidazo[4,5-b]pyridin-3-yl)benzyl)piperidin-4-yl)amino)pyrimidine-2-carbonitrile] | < 15
N#Cc1nccc(NC2CCN(Cc3ccc(-n4c(-c5cccnc5N)nc5ccc(-n6cncn6)nc54)cc3)CC2)n1 [Example 590, 4-((1-(4-(2-(2-Aminopyridin-3-yl)-5-(1H-1,2,4-triazol-1-yl)-3H-imidazo[4,5-b]pyridin-3-yl)benzyl)piperidin-4-yl)amino)pyrimidine-2-carbonitrile] | < 15
Cc1cncc(-c2ccc3nc(-c4cccnc4N)n(-c4ccc(CN5CCC(Nc6ccnc(C#N)n6)CC5)cc4)c3n2)c1 [Example 478, 4-((1-(4-(2-(2-Aminopyridin-3-yl)-5-(5-methylpyridin-3-yl)-3H-imidazo[4,5-b]pyridin-3-yl)benzyl)piperidin-4-yl)amino)pyrimidine-2-carbonitrile] | < 15
Cn1ncnc1-c1ccc2nc(-c3cccnc3N)n(-c3ccc(CN4CCC(Nc5ccnc(C#N)n5)CC4)cc3)c2n1 [Example 567, 4-((1-(4-(2-(2-Aminopyridin-3-yl)-5-(1-methyl-1H-1,2,4-triazol-5-yl)-3H-imidazo[4,5-b]pyridin-3-yl)benzyl)piperidin-4-yl)amino)pyrimidine-2-carbonitrile] | < 15
N#Cc1nccc(NC2CCN(Cc3ccc(-n4c(-c5cccnc5N)nc5ccc(-c6ccc(F)nc6)nc54)cc3)CC2)n1 [Example 404, 4-((1-(4-(2-(2-Aminopyridin-3-yl)-5-(6-fluoropyridin-3-yl)-3H-imidazo[4,5-b]pyridin-3-yl)benzyl)piperidin-4-yl)amino)pyrimidine-2-carbonitrile] | < 15
N#Cc1nccc(NC2CCN(Cc3ccc(-n4c(-c5cccnc5N)nc5ccc(C6CCOC6)nc54)cc3)CC2)n1 (stereo not drawn) [Example 417, 4-((1-(4-(2-(2-Aminopyridin-3-yl)-5-(tetrahydrofuran-3-yl)-3H-imidazo[4,5-b]pyridin-3-yl)benzyl)piperidin-4-yl)amino)pyrimidine-2-carbonitrile] | < 15

same assay, conditions: competitive tracer displacement in living cells, read-out: AKT1 E17K IC50

Structure (SMILES) | IC50 [nM]
N#Cc1nccc(NC2CCN(Cc3ccc(-n4c(-c5cccnc5N)nc5ccc(-c6ccccc6F)nc54)cc3)CC2)n1 [Example 316, 4-((1-(4-(2-(2-Aminopyridin-3-yl)-5-(2-fluorophenyl)-3H-imidazo[4,5-b]pyridin-3-yl)benzyl)piperidin-4-yl)amino)pyrimidine-2-carbonitrile] | < 15
N#Cc1ncnc(N2CCN(Cc3ccc(-n4c(-c5cccnc5N)nc5ccc(-c6ccccc6)nc54)cc3)CC23CC3)n1 [Example 276, 4-(7-(4-(2-(2-aminopyridin-3-yl)-5-phenyl-3H-imidazo[4,5-b]pyridin-3-yl)benzyl)-4,7-diazaspiro[2.5]octan-4-yl)-1,3,5-triazine-2-carbonitrile] | < 15
N#Cc1cncc(NC2CCN(Cc3ccc(-n4c(-c5cccnc5N)nc5cccnc54)cc3)CC2)c1 [Example 74, 5-((1-(4-(2-(2-Aminopyridin-3-yl)-3H-imidazo[4,5-b]pyridin-3-yl)benzyl)piperidin-4-yl)amino)nicotinonitrile] | 600 to 10000
N#Cc1ncnc(N2CC3CCC(C2)N3Cc2ccc(-n3c(-c4cccnc4N)nc4ccc(N5CCOCC5)nc43)cc2)n1 [Example 285, 4-(8-(4-(2-(2-Aminopyridin-3-yl)-5-morpholino-3H-imidazo[4,5-b]pyridin-3-yl)benzyl)-3,8-diazabicyclo[3.2.1]octan-3-yl)-1,3,5-triazine-2-carbonitrile] | < 15
[2H]C([2H])([2H])N(c1ccnc(C#N)n1)C1CCN(Cc2ccc(-n3c(-c4cccnc4N)nc4ccc(-c5ccccc5)nc43)cc2)CC1 [Example 232, 4-((1-(4-(2-(2-Aminopyridin-3-yl)-5-phenyl-3H-imidazo[4,5-b]pyridin-3-yl)benzyl)piperidin-4-yl)(methyl-d3)amino)pyrimidine-2-carbonitrile] | < 15
N#Cc1nccc(NC2CCN(Cc3ccc(-n4c(-c5cccnc5N)nc5ccc(C6CC6)nc54)cc3)CC2)n1 [Example 298, 4-((1-(4-(2-(2-Aminopyridin-3-yl)-5-cyclopropyl-3H-imidazo[4,5-b]pyridin-3-yl)benzyl)piperidin-4-yl)amino)pyrimidine-2-carbonitrile] | < 15
N#Cc1ncnc(NC2COCCN(Cc3ccc(-n4c(-c5cccnc5N)nc5ccc(-c6ccccc6)nc54)cc3)C2)n1 (stereo not drawn) [Example 279, 4-((4-(4-(2-(2-Aminopyridin-3-yl)-5-phenyl-3H-imidazo[4,5-b]pyridin-3-yl)benzyl)-1,4-oxazepan-6-yl)amino)-1,3,5-triazine-2-carbonitrile] | < 15
N#Cc1ncnc(NC2CC3(CCN(Cc4ccc(-n5c(-c6cccnc6N)nc6ccc(-c7ccccc7)nc65)cc4)CC3)C2)n1 [Example 248, 4-((7-(4-(2-(2-aminopyridin-3-yl)-5-phenyl-3H-imidazo[4,5-b]pyridin-3-yl)benzyl)-7-azaspiro[3.5]nonan-2-yl)amino)-1,3,5-triazine-2-carbonitrile] | < 15
N#Cc1cncc(C(=O)NCc2ccc(-n3c(-c4cccnc4N)nc4cccnc43)cc2)c1 [Example 123, N-(4-(2-(2-Aminopyridin-3-yl)-3H-imidazo[4,5-b]pyridin-3-yl)benzyl)-5-cyanonicotinamide] | 600 to 10000
N#Cc1ccc(OC2CCN(Cc3ccc(-n4c(-c5cccnc5N)nc5cccnc54)cc3)CC2)nc1 [Example 1, 6-((1-(4-(2-(2-Aminopyridin-3-yl)-3H-imidazo[4,5-b]pyridin-3-yl)benzyl)piperidin-4-yl)oxy)nicotinonitrile] | 600 to 10000
N#Cc1ccnc(C(=O)N2CCN(Cc3ccc(-n4c(-c5cccnc5N)nc5ccc(-c6ccccc6)nc54)cc3)CC2)c1 [Example 140, 2-(4-(4-(2-(2-Aminopyridin-3-yl)-5-phenyl-3H-imidazo[4,5-b]pyridin-3-yl)benzyl)piperazine-1-carbonyl)isonicotinonitrile] | 60 to 600
N#Cc1nccc(NC2C3CCC2CN(Cc2ccc(-n4c(-c5cccnc5N)nc5ccc(-c6ccccc6)nc54)cc2)C3)n1 (stereo not drawn) [Example 201, 4-((3-(4-(2-(2-Aminopyridin-3-yl)-5-phenyl-3H-imidazo[4,5-b]pyridin-3-yl)benzyl)-3-azabicyclo[3.2.1]octan-8-yl)amino)pyrimidine-2-carbonitrile] | 60 to 600
N#Cc1nc(C(=O)NCc2ccc(-n3c(-c4cccnc4N)nc4cccnc43)cc2)cs1 [Example 244, N-(4-(2-(2-Aminopyridin-3-yl)-3H-imidazo[4,5-b]pyridin-3-yl)benzyl)-2-cyanothiazole-4-carboxamide] | 600 to 10000
